Assay results as given in PubChem BioAssay (NCI).
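Grown in 96-well plates, cells were treated for 48 hours with each compound at five concentrations. Insufficient inhibition: endpoint recorded as highest concentration tested. TGI is the concentration that stops growth completely.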

What was measured:
Experiment in all cases: growth of human tumour cells (NCI), 48 h
OVCAR-8 ovarian = test system: OVCAR-8 ovarian
LOX IMVI melanoma = test system: LOX IMVI melanoma
SK-OV-3 ovarian = test system: SK-OV-3 ovarian
M19-MEL melanoma = test system: M19-MEL melanoma
XF 498 CNS = test system: XF 498 CNS
K-562 leukemia = test system: K-562 leukemia
KM12 colon = test system: KM12 colon
HL-60(TB) leukemia = test system: HL-60(TB) leukemia
SK-MEL-2 melanoma = test system: SK-MEL-2 melanoma
OVCAR-5 ovarian = test system: OVCAR-5 ovarian
HT29 colon = test system: HT29 colon
DLD-1 colon = test system: DLD-1 colon
IGROV1 ovarian = test system: IGROV1 ovarian
SNB-78 CNS = test system: SNB-78 CNS
SN12C renal = test system: SN12C renal
HOP-62 NSCLC = test system: HOP-62 NSCLC
RPMI-8226 leukemia = test system: RPMI-8226 leukemia
M14 melanoma = test system: M14 melanoma
KM20L2 colon = test system: KM20L2 colon
COLO 205 colon = test system: COLO 205 colon
DMS 114 small cell lung = test system: DMS 114 small cell lung
UACC-62 melanoma = test system: UACC-62 melanoma
TK-10 renal = test system: TK-10 renal
OVCAR-3 ovarian = test system: OVCAR-3 ovarian
SNB-19 CNS = test system: SNB-19 CNS
SNB-75 CNS = test system: SNB-75 CNS
UACC-257 melanoma = test system: UACC-257 melanoma
HCT-116 colon = test system: HCT-116 colon
NCI-H23 lung = test system: NCI-H23 lung
HOP-92 NSCLC = test system: HOP-92 NSCLC
NCI-H226 lung = test system: NCI-H226 lung
SF-268 CNS = test system: SF-268 CNS
HOP-18 NSCLC = test system: HOP-18 NSCLC
A498 renal = test system: A498 renal
SF-295 CNS = test system: SF-295 CNS
HCT-15 colon = test system: HCT-15 colon
RXF-631 renal = test system: RXF-631 renal
RXF 393 renal = test system: RXF 393 renal
HCC-2998 colon = test system: HCC-2998 colon
SK-MEL-28 melanoma = test system: SK-MEL-28 melanoma
OVCAR-4 ovarian = test system: OVCAR-4 ovarian
786-0 renal = test system: 786-0 renal
A549 NSCLC = test system: A549 NSCLC
U251 CNS = test system: U251 CNS
UO-31 renal = test system: UO-31 renal
LXFL 529 NSCLC = test system: LXFL 529 NSCLC
SF-539 CNS = test system: SF-539 CNS
MALME-3M melanoma = test system: MALME-3M melanoma
NCI-H460 lung = test system: NCI-H460 lung
ACHN renal = test system: ACHN renal
CCRF-CEM leukemia = test system: CCRF-CEM leukemia
SW-620 colon = test system: SW-620 colon
EKVX NSCLC = test system: EKVX NSCLC
MOLT-4 leukemia = test system: MOLT-4 leukemia
NCI-H522 lung = test system: NCI-H522 lung
DMS 273 small cell lung = test system: DMS 273 small cell lung
SK-MEL-5 melanoma = test system: SK-MEL-5 melanoma
CAKI-1 renal = test system: CAKI-1 renal

Measured: TGI

CC1=C(C(=O)Nc2ccc([N+](=O)[O-])cc2)C(c2cccc([N+](=O)[O-])c2)C(C(=O)Nc2ccc([N+](=O)[O-])cc2)=C(C)N1
> 100 µM: OVCAR-8 ovarian | LOX IMVI melanoma | M19-MEL melanoma | K-562 leukemia | KM12 colon | HL-60(TB) leukemia | SK-MEL-2 melanoma | OVCAR-5 ovarian | HT29 colon | DLD-1 colon | IGROV1 ovarian | SNB-78 CNS | SN12C renal | HOP-62 NSCLC | RPMI-8226 leukemia | M14 melanoma | KM20L2 colon | COLO 205 colon | DMS 114 small cell lung | UACC-62 melanoma | TK-10 renal | OVCAR-3 ovarian | SNB-19 CNS | SNB-75 CNS | HCT-116 colon | NCI-H226 lung | SF-268 CNS | HOP-18 NSCLC | A498 renal | SF-295 CNS | HCT-15 colon | RXF-631 renal | RXF 393 renal | HCC-2998 colon | SK-MEL-28 melanoma | OVCAR-4 ovarian | 786-0 renal | A549 NSCLC | U251 CNS | UO-31 renal | LXFL 529 NSCLC | SF-539 CNS | MALME-3M melanoma | NCI-H460 lung | ACHN renal | CCRF-CEM leukemia | SW-620 colon | EKVX NSCLC | MOLT-4 leukemia | NCI-H522 lung
71.6 µM: SK-OV-3 ovarian
39 µM: HOP-92 NSCLC
41.3 µM: XF 498 CNS
56.1 µM: UACC-257 melanoma
66.4 µM: NCI-H23 lung

CN(C)c1[se]nc2c1c(=O)n(C)c(=O)n2C
> 100 µM: DMS 273 small cell lung | OVCAR-8 ovarian | LOX IMVI melanoma | SK-OV-3 ovarian | M19-MEL melanoma | XF 498 CNS | K-562 leukemia | SK-MEL-5 melanoma | KM12 colon | HL-60(TB) leukemia | SK-MEL-2 melanoma | OVCAR-5 ovarian | HT29 colon | DLD-1 colon | IGROV1 ovarian | SNB-78 CNS | SN12C renal | HOP-62 NSCLC | RPMI-8226 leukemia | KM20L2 colon | COLO 205 colon | DMS 114 small cell lung | UACC-62 melanoma | TK-10 renal | OVCAR-3 ovarian | SNB-19 CNS | SNB-75 CNS | UACC-257 melanoma | HCT-116 colon | NCI-H23 lung | HOP-92 NSCLC | NCI-H226 lung | SF-268 CNS | HOP-18 NSCLC | A498 renal | SF-295 CNS | HCT-15 colon | RXF-631 renal | HCC-2998 colon | SK-MEL-28 melanoma | OVCAR-4 ovarian | 786-0 renal | A549 NSCLC | U251 CNS | UO-31 renal | LXFL 529 NSCLC | SF-539 CNS | MALME-3M melanoma | NCI-H460 lung | ACHN renal | CCRF-CEM leukemia | SW-620 colon | EKVX NSCLC | MOLT-4 leukemia | CAKI-1 renal | NCI-H522 lung
